Results as given in patent US12617783B2, “Heterocyclic GLP-1R agonists” (BIOMEA FUSION, INC., priority 2024, dated 2026).
Read-outs that look alike come from different tables or passages of the source.

Biological target: T1, human GLP-1R (Homo sapiens, UniProt P43220)
T1 construct: host or cells: HEK293
Experiment: GLP-1R cAMP assay (Example B1a, HTRF, 30 min at room temperature)
Assay type: cell-based
Summary of the method: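 Competitive HTRF read-out of cAMP after 30 min room-temperature stimulation, BETP absent, of human GLP-1R-HEK293 cells (1,000/well) in HEPES buffer with 500 μM IBMX and 0.1% BSA. Activation normalised to GLP-1(7-37) positive control. EC50 from 4-parameter non-linear regression.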

[1] = cAMP accumulation in HEK293 expressing human GLP-1R, no BETP, 30 min room temperature (Method B1a, compounds ID 1-609), Table 1, read-out: EC50

T1 sequence (P43220 24-463): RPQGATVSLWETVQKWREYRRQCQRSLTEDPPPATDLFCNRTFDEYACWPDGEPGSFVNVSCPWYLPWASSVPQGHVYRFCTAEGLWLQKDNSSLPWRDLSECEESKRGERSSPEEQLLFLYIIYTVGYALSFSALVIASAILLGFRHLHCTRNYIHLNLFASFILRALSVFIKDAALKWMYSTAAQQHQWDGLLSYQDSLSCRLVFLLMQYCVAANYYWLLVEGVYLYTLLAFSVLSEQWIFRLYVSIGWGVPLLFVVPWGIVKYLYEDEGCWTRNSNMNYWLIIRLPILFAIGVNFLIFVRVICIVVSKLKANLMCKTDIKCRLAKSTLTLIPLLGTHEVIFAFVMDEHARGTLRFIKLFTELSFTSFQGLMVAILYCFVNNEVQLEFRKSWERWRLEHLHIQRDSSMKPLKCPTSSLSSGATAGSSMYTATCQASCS

For Cc1cc(-n2nc3c(c2-n2ccn(-c4ccc(C(N)=O)c(F)c4)c2=O)[C@@H]2CC[C@H](C3)N2C(=O)c2cc3cc([C@H]4CCOC(C)(C)C4)ccc3n2[C@@]2(c3noc(=O)[nH]3)C[C@@H]2C)cc(C)c1F [Compound 412, 4-[3-[(1S,8R)-11-[5-[(4S)-2,2-dimethyltetrahydropyran-4-yl]-1-[(1S,2S)-2-methyl-1-(5-oxo-4H-1,2,4-oxadiazol-3-yl)cyclopropyl]indole-2-carbonyl]-4-(4-fluoro-3,5-dimethyl-phenyl)-4,5,11-triazatricyclo[6.2.1.02,6]undeca-2,5-dien-3-yl]-2-oxo-imidazol-1-yl]-2-fluoro-benzamide], the EC50 [1] was 551 nM.
In the case of Cc1cc(-n2nc3c(c2-n2ccn(-c4ccc5cnncc5c4F)c2=O)[C@@H]2CC[C@H](C3)N2C(=O)c2cc3cc([C@H]4CCOC(C)(C)C4)ccc3n2[C@@]2(c3noc(=O)[nH]3)C[C@@H]2C)cc(C)c1F [Compound 410, 3-((1S,2S)-1-(5-((S)-2,2-dimethyltetrahydro-2H-pyran-4-yl)-2-((4S,7R)-2-(4-fluoro-3,5-dimethylphenyl)-3-(3-(5-fluorophthalazin-6-yl)-2-oxo-2,3-dihydro-1H-imidazol-1-yl)-2,4,5,6,7,8-hexahydro-4,7-epiminocyclohepta [c]pyrazole-9-carbonyl)-1H-indol-1-yl)-2-methylcyclopropyl)-1,2,4-oxadiazol-5 (4H)-one], the EC50 [1] is reported as 14.7 nM.
Cc1cc(-n2nc3c(c2-n2ccn(-c4ccc5c(cnn5C)c4F)c2=O)[C@@H]2CC[C@H](C3)N2C(=O)c2cc3cc([C@H]4CCOC(C)(C)C4)ccc3n2[C@@]2(C(=O)NS(C)(=O)=O)C[C@@H]2C)cc(C)c1F [Compound 201, cis-(1S,2S)-1-[5-[(4S)-2,2-dimethyltetrahydropyran-4-yl]-2-[(1S,8R)-4-(4-fluoro-3,5-dimethyl-phenyl)-3-[3-(4-fluoro-1-methyl-indazol-5-yl)-2-oxo-imidazol-1-yl]-4,5,11-triazatricyclo[6.2.1.02,6]undeca-2,5-diene-11-carbonyl]indol-1-yl]-2-methyl-N-methylsulfonyl-cyclopropanecarboxamide] was tested, and the EC50 [1] was greater than 10000 nM.
For Cc1cc(-n2nc3c(c2-n2ccn(-c4ccc5c(cnn5C)c4F)c2=O)[C@@H]2CC[C@H](C3)N2C(=O)c2cc3cc([C@H]4CCOC5(CC5)C4)ccc3n2[C@]2(c3noc(=O)[nH]3)C[C@H]2C)cc(C)c1F [Compound 519, 3-[(1R,2R)-1-[2-[(1S,8R)-4-(4-fluoro-3,5-dimethyl-phenyl)-3-[3-(4-fluoro-1-methyl-indazol-5-yl)-2-oxo-imidazol-1-yl]-4,5,11-triazatricyclo[6.2.1.02,6]undeca-2,5-diene-11-carbonyl]-5-[(7S)-4-oxaspiro[2.5]octan-7-yl]indol-1-yl]-2-methyl-cyclopropyl]-4H-1,2,4-oxadiazol-5-one], the EC50 [1] was no less than 10000 nM.
With Cc1cc(-n2nc3c(c2-n2ccn(-c4ccc5c(cnn5C)c4F)c2=O)[C@@H]2CC[C@H](C3)N2C(=O)c2cc3sc([C@@H]4CCOC(C)(C)C4)nc3n2[C@@]2(c3noc(=O)[nH]3)C[C@@H]2C)cc(C)c1F [Compound 307, 3-[(1S,2S)-1-[2-[(4R)-2,2-dimethyltetrahydropyran-4-yl]-5-[(1S,8R)-4-(4-fluoro-3,5-dimethyl-phenyl)-3-[3-(4-fluoro-1-methyl-indazol-5-yl)-2-oxo-imidazol-1-yl]-4,5,11-triazatricyclo[6.2.1.02,6]undeca-2,5-diene-11-carbonyl]pyrrolo[2,3-d]thiazol-4-yl]-2-methyl-cyclopropyl]-4H-1,2,4-oxadiazol-5-one] the EC50 [1] was greater than 10000 nM.
With Cc1cc(-n2nc3c(c2-n2ccn(-c4ccc5c(cnn5C)c4F)c2=O)[C@@H]2CC[C@H](C3)N2C(=O)c2cc3cc(C4CCOC5(C4)CN(C)C5)ccc3n2C2(c3noc(=O)[nH]3)CC2)cc(C)c1F (stereo partly drawn) [Compound 135, 3-[1-[2-[(1S,8R)-4-(4-fluoro-3,5-dimethyl-phenyl)-3-[3-(4-fluoro-1-methyl-indazol-5-yl)-2-oxo-imidazol-1-yl]-4,5,11-triazatricyclo[6.2.1.02,6]undeca-2,5-diene-11-carbonyl]-5-(2-methyl-5-oxa-2-azaspiro[3.5]nonan-8-yl)indol-1-yl]cyclopropyl]-4H-1,2,4-oxadiazol-5-one] the EC50 [1] was greater than 10000 nM.
In the case of Cc1cc(-n2nc3c(c2-n2ccn(-c4ccc5c(cnn5C)c4F)c2=O)[C@@H]2CC[C@H](C3)N2C(=O)c2cc3cc([C@H]4CCOC(C)(C)C4)ccc3n2C2(c3nnn[nH]3)CC2)cc(C)c1F [Compound 118, 1-((4S,7R)-9-(1-(1-(1H-tetrazol-5-yl)cyclopropyl)-5-((S)-2,2-dimethyltetrahydro-2H-pyran-4-yl)-1H-indole-2-carbonyl)-2-(4-fluoro-3,5-dimethylphenyl)-2,4,5,6,7,8-hexahydro-4,7-epiminocyclohepta [c]pyrazol-3-yl)-3-(4-fluoro-1-methyl-1H-indazol-5-yl)-1H-imidazol-2 (3H)-one], the EC50 [1] is reported as 452 nM.
Cc1cc(-n2nc3c(c2-n2ccn(-c4ccc5c(cnn5C)c4F)c2=O)[C@@H]2CC[C@H](C3)N2C(=O)c2cc3nc(C4CCOC(C)(C)C4)sc3n2[C@@]2(c3noc(=O)[nH]3)C[C@@H]2C)cc(C)c1F (stereo partly drawn) [Compound 139, 3-[(1S,2S)-1-[2-(2,2-dimethyltetrahydropyran-4-yl)-5-[(1S,8R)-4-(4-fluoro-3,5-dimethyl-phenyl)-3-[3-(4-fluoro-1-methyl-indazol-5-yl)-2-oxo-imidazol-1-yl]-4,5,11-triazatricyclo[6.2.1.02,6]undeca-2,5-diene-11-carbonyl]pyrrolo[3,2-d]thiazol-4-yl]-2-methyl-cyclopropyl]-4H-1,2,4-oxadiazol-5-one] showed an EC50 [1] of 3110 nM.
For Cc1cc(-n2nc3c(c2-n2ccn(-c4ccc5c(cnn5C)c4F)c2=O)[C@@H]2CCC[C@H](C3)N2S(=O)(=O)c2cc3cc(N4CCOC5(CC5)C4)ccc3n2[C@@]2(c3noc(=O)[nH]3)C[C@@H]2C)cc(C)c1F [Compound 535, 3-[(1S,2S)-1-[2-[[(1S,8R)-4-(4-fluoro-3,5-dimethyl-phenyl)-3-[3-(4-fluoro-1-methyl-indazol-5-yl)-2-oxo-imidazol-1-yl]-4,5,12-triazatricyclo[6.3.1.02,6]dodeca-2,5-dien-12-yl]sulfonyl]-5-(4-oxa-7-azaspiro[2.5]octan-7-yl)indol-1-yl]-2-methyl-cyclopropyl]-4H-1,2,4-oxadiazol-5-one], the EC50 [1] was 1890 nM.
COc1ccc(-n2ccn(-c3c4c(nn3-c3cc(C)c(F)c(C)c3)C[C@H]3CC[C@@H]4N3C(=O)c3cc4cc([C@H]5CCOC(C)(C)C5)ccc4n3[C@@]3(c4noc(=O)[nH]4)C[C@@H]3C)c2=O)cc1 [Compound 223, 3-[(1S,2S)-1-[5-[(4S)-2,2-dimethyltetrahydropyran-4-yl]-2-[(1S,8R)-4-(4-fluoro-3,5-dimethyl-phenyl)-3-[3-(4-methoxyphenyl)-2-oxo-imidazol-1-yl]-4,5,11-triazatricyclo[6.2.1.02,6]undeca-2,5-diene-11-carbonyl]indol-1-yl]-2-methyl-cyclopropyl]-4H-1,2,4-oxadiazol-5-one] showed an EC50 [1] of 259 nM.
Cc1cc(-n2nc3c(c2-n2ccn(-c4ccc5c(cnn5C)c4F)c2=O)[C@@H]2CC[C@H](C3)N2C(=O)c2cc3ccc([C@@H]4CCOC(C)(C)C4)cc3nc2[C@@]2(c3noc(=O)[nH]3)C[C@@H]2C)cc(C)c1F [Compound 319, 3-[(1R,2S)-1-[7-[(4R)-2,2-dimethyltetrahydropyran-4-yl]-3-[(1S,8R)-4-(4-fluoro-3,5-dimethyl-phenyl)-3-[3-(4-fluoro-1-methyl-indazol-5-yl)-2-oxo-imidazol-1-yl]-4,5,11-triazatricyclo[6.2.1.02,6]undeca-2,5-diene-11-carbonyl]-2-quinolyl]-2-methyl-cyclopropyl]-4H-1,2,4-oxadiazol-5-one] showed an EC50 [1] of 469 nM.
In the case of Cc1cc(-n2nc3c(c2-n2ccn(-c4ccc5c(cnn5C)c4F)c2=O)[C@@H]2CC[C@H]([C@@H]3F)N2C(=O)c2cc3cc([C@H]4CCOC(C)(C)C4)ccc3n2[C@@]2(c3noc(=O)[nH]3)C[C@@H]2C)cc(C)c1F [Compound 515, 3-[(1S,2S)-1-[5-[(4S)-2,2-dimethyltetrahydropyran-4-yl]-2-[(1S,7S,8R)-7-fluoro-4-(4-fluoro-3,5-dimethyl-phenyl)-3-[3-(4-fluoro-1-methyl-indazol-5-yl)-2-oxo-imidazol-1-yl]-4,5,11-triazatricyclo[6.2.1.02,6]undeca-2,5-diene-11-carbonyl]indol-1-yl]-2-methyl-cyclopropyl]-4H-1,2,4-oxadiazol-5-one], the “EC50 Ratio” value (Table 1d, potency ratio of stereoisomer pair (less potent / more potent isomer)) is reported as greater than 44, the EC50 (Table 1d, stereoisomer pairs, read-out: EC50) is reported as 120 nM and the EC50 [1] is reported as 120 nM. It also gave an EC50 (text to Table 1d, bridge atoms configured into the plane or away from the reader, read-out: potency (EC50)) of less than 1000 nM.
Cc1cc(-n2nc3c(c2-n2ccn(-c4ccc5nn(CCN6CCOCC6)cc5c4F)c2=O)[C@@H]2CC[C@H](C3)N2C(=O)c2cc3cc([C@H]4CCOC(C)(C)C4)ccc3n2[C@@]2(c3noc(=O)[nH]3)C[C@@H]2C)cc(C)c1F [Compound 131, 3-[(1S,2S)-1-[5-[(4S)-2,2-dimethyltetrahydropyran-4-yl]-2-[(1S,8R)-4-(4-fluoro-3,5-dimethyl-phenyl)-3-[3-[4-fluoro-2-(2-morpholinoethyl)indazol-5-yl]-2-oxo-imidazol-1-yl]-4,5,11-triazatricyclo[6.2.1.02,6]undeca-2,5-diene-11-carbonyl]indol-1-yl]-2-methyl-cyclopropyl]-4H-1,2,4-oxadiazol-5-one] showed an EC50 [1] greater than 10000 nM.
Cc1cc(-n2nc3c(c2-n2ccn(-c4ccc5c(cnn5C)c4F)c2=O)[C@@H]2CC[C@H](C3)N2C(=O)c2cc3ccc([C@H]4CCOC(C)(C)C4)cc3nc2[C@@]2(c3noc(=O)[nH]3)C[C@@H]2C)cc(C)c1F [Compound 318, 3-[(1R,2S)-1-[7-[(4S)-2,2-dimethyltetrahydropyran-4-yl]-3-[(1S,8R)-4-(4-fluoro-3,5-dimethyl-phenyl)-3-[3-(4-fluoro-1-methyl-indazol-5-yl)-2-oxo-imidazol-1-yl]-4,5,11-triazatricyclo[6.2.1.02,6]undeca-2,5-diene-11-carbonyl]-2-quinolyl]-2-methyl-cyclopropyl]-4H-1,2,4-oxadiazol-5-one] was tested, and the EC50 [1] was 870 nM.
